Results reported in the C3SDB collision cross section collection.
Where “and” joins values, the source holds several entries; their conditions need not be identical. Equal entries are not always repeated.

Legend:
[1] = instrument: DT, stepped-field
[2] = instrument: DT, single field, calibrated with Agilent tune mix (Agilent)

## Cn1cnc2ncnc-2c1N [1-Methyladenine]
[1]; [M+H]+
  collision cross section (N2): 128.35 Å²

## Cn1c(N)nc2c(ncn2[C@@H]2O[C@H](CO)[C@@H](O)[C@H]2O)c1=O [1-Methylguanosine]
[1]; [M+H]+
  collision cross section (N2): 168.8 Å²
[1]; [M+Na]+
  collision cross section (N2): 180.8 Å²

## Cc1cccc2ccccc12 [1-methylnaphthalene]
[1]; [M+H]+
  collision cross section (N2): 125.2 Å²

## O=C(O)CNC(=O)c1ccccc1O [2-Hydroxy Hippuric Acid]
[1]; [M+Na]+
  collision cross section (N2): 154.87 Å²

## COc1cc2c(cc1O)CC[C@@H]1[C@@H]2CC[C@]2(C)C(=O)CC[C@@H]12 [2-Methoxyestrone]
[1]; [M+H]+
  collision cross section (N2): 174.47 Å²
[1]; [M+Na]+
  collision cross section (N2): 201.71 Å²

## CCCC(=O)C(=O)O [2-Oxovaleric Acid]
[1]; [M+Na]+
  collision cross section (N2): 131.64 Å²

## O=C(O)C1=CC(=O)[C@@H](O)[C@H](O)C1 [3-Dehydroshikimic Acid]
[1]; [M+H]+
  collision cross section (N2): 132.73 Å²

## NC(=O)NCCC(=O)O [3-Ureidopropionic Acid]
[1]; [M+Na]+
  collision cross section (N2): 135.8 Å²

## Cc1ncc(CO)c(C(=O)O)c1O [4-Pyridoxate]
[1]; [M+H]+
  collision cross section (N2): 137.27 Å²
[1]; [M+Na]+
  collision cross section (N2): 151.78 Å²

## CSC[C@H]1O[C@@H](n2cnc3c(N)ncnc32)[C@H](O)[C@@H]1O [5'-Methylthioadenosine]
[1]; [M+H]+
  collision cross section (N2): 173.03 Å²
[1]; [M+Na]+
  collision cross section (N2): 176.54 Å²

## CCCCC/C=C\C/C=C\C/C=C\C=C\[C@@H](O)CCCC(=O)O [5S-HETE]
[1]; [M+Na]+
  collision cross section (N2): 188.21 Å²

## Cn1cnc2[nH]c(N)nc(=O)c21 [7-Methylguanine]
[1]; [M+H]+
  collision cross section (N2): 134.33 Å²
[1]; [M+Na]+
  collision cross section (N2): 149.72 Å²

## CCCCC/C=C\C[C@@H](O)/C=C/C=C\C/C=C\CCCC(=O)O [12R-HETE]
[1]; [M+Na]+
  collision cross section (N2): 194.4 Å²

## CCCCCC(O)/C=C/C=C\CCCCCCCC(=O)O (stereo unspecified) [13-HODE]
[1]; [M+Na]+
  collision cross section (N2): 191.83 Å²

## CCCCCCCC/C=C\CCCCCCCC(=O)OC[C@@H](O)COP(=O)([O-])OCC[N+](C)(C)C [18:1 Lyso PC]
[1]; [M+Na]+
  collision cross section (N2): 239.53 Å²

## CC1=CC(=O)CC(C)(C)C1(O)/C=C/C(C)=C\C(=O)O (stereo unspecified) [Abscisic Acid]
[1]; [M+H]+
  collision cross section (N2): 160.56 Å²
[1]; [M+Na]+
  collision cross section (N2): 176.18 Å²

## CC(=O)OP(=O)(O)O [Acetyl Phosphate]
[1]; [M+Na]+
  collision cross section (N2): 125.44 Å²

## CC(=O)SCCNC(=O)CCNC(=O)[C@H](O)C(C)(C)COP(=O)(O)OP(=O)(O)OC[C@H]1O[C@@H](n2cnc3c(N)ncnc32)[C@H](O)[C@@H]1OP(=O)(O)O [Acetyl coenzyme A]
[1]; [M+H]+
  collision cross section (N2): 249.8 Å²
[1]; [M+Na]+
  collision cross section (N2): 263.07 Å²

## Nc1ncnc2c1ncn2[C@@H]1O[C@H](COP(=O)(O)O)[C@@H](O)[C@H]1O [Adenosine 5' Monophosphate]
[1]; [M+H]+
  collision cross section (N2): 173.33 Å²
[1]; [M+Na]+
  collision cross section (N2): 180.73 Å²

## O=c1cc(-c2ccc(O)c(-c3c(O)cc(O)c4c(=O)cc(-c5ccc(O)cc5)oc34)c2)oc2cc(O)cc(O)c12 [Amentoflavone]
[1]; [M+H]+
  collision cross section (N2): 230.16 Å²

## Nc1ccccc1S(=O)(=O)O [Aniline-2-sulfonic Acid]
[1]; [M+Na]+
  collision cross section (N2): 153.23 Å²

## NC[C@H](O)c1ccc(O)c(O)c1 [Norepinephrine]
[2]; [M+H-H2O]+
  collision cross section (N2): 137.3 Å² and 136.8 Å²
[2]; [M-H]-
  collision cross section (N2): 131.99 Å²

## NCCOP(=O)(O)O [O-Phosphoethanolamine]
[2]; [M-H]-
  collision cross section (N2): 121.6 Å²

## N[C@@H](Cc1ccc(OP(=O)(O)O)cc1)C(=O)O [O-Phosphotyrosine]
[2]; [M+H]+
  collision cross section (N2): 162.2 Å²
[2]; [M+Na-2H]-
  collision cross section (N2): 149.33 Å²

## CCCCCCCC(=O)SCCNC(=O)CCNC(=O)[C@H](O)C(C)(C)COP(=O)(O)OP(=O)(O)OC[C@H]1O[C@@H](n2cnc3c(N)ncnc32)[C@H](O)[C@@H]1OP(=O)(O)O [Octanoyl-CoA]
[2]; [M-H]-
  collision cross section (N2): 268.72 Å²

## CCCCCCCCCCCCCCCC(=O)SCCNC(=O)CCNC(=O)[C@H](O)C(C)(C)COP(=O)(O)OP(=O)(O)OC[C@H]1O[C@@H](n2cnc3c(N)ncnc32)[C@H](O)[C@@H]1OP(=O)(O)O [Palmitoyl CoA]
[2]; [M+H]+
  collision cross section (N2): 296.2 Å²
[2]; [M-H]-
  collision cross section (N2): 296.46 Å²

## CC(C)(CO)[C@@H](O)C(=O)NCCC(=O)O [Pantothenate]
[2]; [M+H]+
  collision cross section (N2): 148.1 Å²

## O=C(O)c1ccc(O)c(O)c1 [Protocatechuic acid]
[2]; [M+H-H2O]+
  collision cross section (N2): 122.3 Å²

## Cc1ncc(COP(=O)(O)O)c(CN)c1O [Pyridoxamine 5'-phosphate]
[2]; [M+H]+
  collision cross section (N2): 150.9 Å²

## O=c1c(O)c(-c2ccc(O)c(O)c2)oc2cc(O)cc(O)c12 [Quercetin]
[2]; [M+H]+
  collision cross section (N2): 166.7 Å²
[2]; [M-H]-
  collision cross section (N2): 158.98 Å²

## O=C(O)c1cccnc1C(=O)O [Quinolinate]
[2]; [M+H-H2O]+
  collision cross section (N2): 130.5 Å²

## CC1=C(/C=C/C(C)=C/C=C/C(C)=C/C=O)C(C)(C)CCC1 [Retinene]
[2]; [M+H]+
  collision cross section (N2): 170.1 Å²

## Cc1cc2nc3c(=O)[nH]c(=O)nc-3n(C[C@H](O)[C@H](O)[C@H](O)CO)c2cc1C [Riboflavin (Vitamin B2)]
[2]; [M+H]+
  collision cross section (N2): 188.3 Å²
[2]; [M-H]-
  collision cross section (N2): 184.12 Å²

## CSC[C@H]1O[C@@H](n2cnc3c(N)ncnc32)[C@H](O)[C@@H]1O [S-Methyl-5'-thioadenosine]
[2]; [M+H]+
  collision cross section (N2): 162.5 Å²

## O=C(O)CNC(=O)c1ccccc1O [Salicyluric acid]
[2]; [M-H]-
  collision cross section (N2): 133.01 Å²

## C[C@H](O)C(=O)C1=Nc2c([nH]c(N)nc2=O)NC1 [Sepiapterin]
[2]; [M+H]+
  collision cross section (N2): 152.8 Å²
[2]; [M-H2O-H]-
  collision cross section (N2): 144.47 Å²

## NCCCCNCCCN [Spermidine]
[2]; [M+H]+
  collision cross section (N2): 131.9 Å²

## CCCCCCCCCCCCCCCCCC(N)=O [Stearamide]
[2]; [M+H]+
  collision cross section (N2): 188.3 Å²

## CCCCCCCCCCCCCCCCCC(=O)O[C@H](CC(=O)[O-])C[N+](C)(C)C [Stearoylcarnitine]
[2]; [M+H]+
  collision cross section (N2): 221.1 Å²

## C[C@H](CCC(=O)NCCS(=O)(=O)O)[C@H]1CC[C@H]2[C@@H]3[C@H](O)C[C@@H]4C[C@H](O)CC[C@]4(C)[C@H]3CC[C@]12C [Taurochenodeoxycholate]
[2]; [M+Na]+
  collision cross section (N2): 207.4 Å²
[2]; [M-H]-
  collision cross section (N2): 205.39 Å²

## C[C@H](CCC(=O)NCCS(=O)(=O)O)[C@H]1CC[C@H]2[C@@H]3CC[C@@H]4C[C@H](O)CC[C@]4(C)[C@H]3C[C@H](O)[C@]12C [Taurodeoxycholic acid]
[2]; [M+H]+
  collision cross section (N2): 204.5 Å²
[2]; [M-H]-
  collision cross section (N2): 204.37 Å²

## C[C@H](CCC(=O)NCCS(=O)(=O)O)[C@H]1CC[C@H]2[C@@H]3CC[C@@H]4C[C@H](O)CC[C@]4(C)[C@H]3CC[C@]12C [Taurolithocholic acid]
[2]; [M+H-H2O]+
  collision cross section (N2): 220.6 Å²
[2]; [M-H]-
  collision cross section (N2): 204.62 Å²

## O=C(O)CCCCC1CCSS1 (stereo unspecified) [Thioctic acid]
[2]; [M+H-H2O]+
  collision cross section (N2): 133.8 Å²

## OC[C@H]1O[C@H](O[C@H]2O[C@H](CO)[C@@H](O)[C@H](O)[C@H]2O)[C@H](O)[C@@H](O)[C@@H]1O [Trehalose]
[2]; [M+Na]+
  collision cross section (N2): 174.9 Å²

## CCCCCCCCCCCCC(=O)O [Tridecanoic acid]
[2]; [M-H]-
  collision cross section (N2): 155.16 Å²

## CCCCCCCCCCC(=O)O [Undecanoic Acid]
[2]; [M-H]-
  collision cross section (N2): 148.87 Å²

## O=c1ccn([C@@H]2O[C@H](COP(=O)(O)O)[C@@H](O)[C@H]2O)c(=O)[nH]1 [Uridine 5'-monophosphate]
[2]; [M+Na]+
  collision cross section (N2): 171.8 Å²

## O=C(O)/C=C/c1cnc[nH]1 [Urocanic acid]
[2]; [M+H]+
  collision cross section (N2): 134.1 Å²
[2]; [M-H]-
  collision cross section (N2): 118.78 Å²

## O=P(O)(O)OC1O[C@H](CO)[C@@H](O)[C@H](O)[C@H]1O (stereo partly drawn) [a-D-Galactose 1-phosphate]
[2]; [M+Na]+
  collision cross section (N2): 157.5 Å²
[2]; [M-H]-
  collision cross section (N2): 145.32 Å²

## C[C@]12CC[C@@H]3c4ccc(O)cc4CC[C@H]3[C@@H]1CC[C@@H]2O [beta-Estradiol]
[2]; [M+H-H2O]+
  collision cross section (N2): 159.7 Å²

## NC(=O)c1ccc[n+]([C@@H]2O[C@H](COP(=O)([O-])O)[C@@H](O)[C@H]2O)c1 [beta-Nicotinamide D-ribonucleotide]
[2]; [M]+
  collision cross section (N2): 165.2 Å²

## Nc1nc(=O)c2ncn([C@H]3C[C@H](O)[C@@H](COP(=O)(O)OP(=O)(O)O)O3)c2[nH]1 [dGDP]
[2]; [M+H]+
  collision cross section (N2): 187.7 Å²

## CSCC[C@H](NC(=O)CC[C@H](N)C(=O)O)C(=O)O [gamma-Glutamylmethionine]
[2]; [M+H]+
  collision cross section (N2): 165.1 Å²

## O=C(O)/C=C/c1ccccc1O [trans-2-Hydroxycinnamic acid]
[2]; [M+H-H2O]+
  collision cross section (N2): 124.1 Å²

## C[C@]12CC[C@H](O)CC1=CC[C@@H]1[C@@H]2CC[C@]2(C)C(=O)CC[C@@H]12 [trans-Dehydroandrosterone]
[2]; [M+H-H2O]+
  collision cross section (N2): 166 Å²
[2]; [M-H]-
  collision cross section (N2): 175.34 Å²

## CCCCCC/C=C/CCCCCCCCCC(=O)O [trans-Vaccenic acid]
[2]; [M-H]-
  collision cross section (N2): 174.95 Å²
